For orientation: EC50 means the midpoint of the concentration-response curve.

The target in assay [1] is T1, Retinoic acid receptor RXR-gamma (Homo sapiens, UniProt P48443).
T1 sequence (P48443 whole entry): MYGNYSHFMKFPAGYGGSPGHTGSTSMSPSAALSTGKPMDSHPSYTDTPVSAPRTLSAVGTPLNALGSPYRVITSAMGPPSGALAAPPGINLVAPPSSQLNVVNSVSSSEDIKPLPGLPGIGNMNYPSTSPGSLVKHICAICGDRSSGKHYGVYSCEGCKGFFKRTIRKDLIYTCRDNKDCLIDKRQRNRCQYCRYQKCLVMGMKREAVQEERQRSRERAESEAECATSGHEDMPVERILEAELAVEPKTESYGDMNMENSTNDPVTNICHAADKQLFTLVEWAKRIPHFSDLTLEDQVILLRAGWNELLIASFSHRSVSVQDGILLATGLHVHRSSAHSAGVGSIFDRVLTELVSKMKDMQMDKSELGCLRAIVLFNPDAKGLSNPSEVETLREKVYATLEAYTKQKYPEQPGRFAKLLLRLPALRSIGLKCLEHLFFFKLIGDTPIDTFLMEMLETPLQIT

Assay [2] has as its target T2, Retinoic acid receptor RXR-alpha (Homo sapiens, UniProt P19793).
T2 sequence (P19793 whole entry): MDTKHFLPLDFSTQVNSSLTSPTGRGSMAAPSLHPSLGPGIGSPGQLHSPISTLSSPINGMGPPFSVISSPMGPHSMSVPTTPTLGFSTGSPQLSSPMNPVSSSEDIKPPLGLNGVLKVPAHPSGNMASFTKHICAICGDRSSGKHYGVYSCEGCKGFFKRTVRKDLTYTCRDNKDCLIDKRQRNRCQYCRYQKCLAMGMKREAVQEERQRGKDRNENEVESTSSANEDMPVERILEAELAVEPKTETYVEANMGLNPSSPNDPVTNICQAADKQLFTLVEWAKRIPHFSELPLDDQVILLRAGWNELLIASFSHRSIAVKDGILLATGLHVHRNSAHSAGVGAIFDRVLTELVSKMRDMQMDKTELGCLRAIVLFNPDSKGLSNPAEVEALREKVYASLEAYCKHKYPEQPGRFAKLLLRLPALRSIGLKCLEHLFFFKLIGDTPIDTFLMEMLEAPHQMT

The target of assay [3] is T3, Retinoic acid receptor RXR-beta (Homo sapiens, UniProt P28702).
T3 sequence (P28702 whole entry): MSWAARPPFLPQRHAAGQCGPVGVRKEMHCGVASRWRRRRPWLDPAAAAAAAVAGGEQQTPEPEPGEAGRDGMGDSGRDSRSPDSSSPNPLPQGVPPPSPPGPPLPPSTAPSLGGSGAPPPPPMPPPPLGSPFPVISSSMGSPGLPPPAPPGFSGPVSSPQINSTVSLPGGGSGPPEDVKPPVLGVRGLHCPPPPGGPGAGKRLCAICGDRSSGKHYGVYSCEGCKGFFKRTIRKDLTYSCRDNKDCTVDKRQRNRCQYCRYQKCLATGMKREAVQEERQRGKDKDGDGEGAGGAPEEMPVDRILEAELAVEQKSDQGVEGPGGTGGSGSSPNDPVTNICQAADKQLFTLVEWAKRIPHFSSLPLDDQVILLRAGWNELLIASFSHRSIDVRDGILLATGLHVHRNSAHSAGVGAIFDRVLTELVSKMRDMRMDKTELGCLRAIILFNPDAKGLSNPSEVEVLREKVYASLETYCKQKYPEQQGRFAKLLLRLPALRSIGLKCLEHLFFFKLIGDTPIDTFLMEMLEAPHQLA
Description: Partial agonist activity at recombinant human RXR beta LBD (298 to 533 residues) expressed in Escherichia coli Rosetta incubated for 16 hrs by Gal4-hybrid reporter gene based Dual-glo luciferase assay

In assay [4] the target is T3, Retinoic acid receptor RXR-beta. The assay can be described thus: Partial agonist activity at full length human RXR beta transfected in HEK293T cells assessed as DR1 activation incubated for 16 hrs by Dual-glo luciferase assay. Format: cell-based.

`CN(c1ccc(Cl)c(Cl)c1)c1cc(Cl)nc(OCCC(=O)O)n1`: in assay [1], the EC50 stood at 6000 nM.
Consider `Cc1ccc2c(c1)N(c1cc(Cl)nc(OCCC(=O)O)n1)CCC2`, for which a half-maximal response in assay [2] (EC50) required 38 nM.
As to `CN(c1ccccc1)c1cc(Cl)nc(OCCC(=O)O)n1`, the EC50 in assay [2] turned out to be 4200 nM; in assay [1], 31000 nM.
In assay [1], `CC1CCN(c2cc(Cl)nc(OCCC(=O)O)n2)c2cc(Cl)ccc21` (stereo unspecified) returned an EC50 of 100 nM.
Consider `CN(c1cc(Cl)nc(OCCC(=O)O)n1)c1cccc2c1CCC2`, for which the EC50 in assay [1] came out at 1200 nM.
Turning to `CC1(C)CCN(c2cc(Cl)nc(OCCC(=O)O)n2)c2ccccc21`, the EC50 is 9 nM in assay [2] and 11 nM in assay [1].
As for `Cc1cccc(N(C)c2cc(Cl)nc(OCCC(=O)O)n2)c1`, the results for the EC50 in assay [2] and in assay [1] were 400 nM and 2600 nM, respectively.
Consider `Cc1cccc2c1CCCN2c1cc(Cl)nc(OCCC(=O)O)n1`, for which the results for the EC50 in assay [2] and in assay [1] were 90 nM and 480 nM, respectively.
`CN(c1cccc(C(F)(F)F)c1)c1cc(Cl)nc(OCCC(=O)O)n1` displayed an EC50 in assay [1] of 2700 nM.
In turn, `CN(c1cccc(Br)c1)c1cc(Cl)nc(OCCC(=O)O)n1` returned an EC50 in assay [1] of 1800 nM.
Take `CC1CCN(c2cc(Cl)nc(OCCC(=O)O)n2)c2ccccc21` (stereo unspecified): the EC50 came to 7 nM in assay [2], 50 nM in assay [1] and 100 nM in assay [3].
The compound `CN(c1cc(Cl)cc(Cl)c1)c1cc(Cl)nc(OCCC(=O)O)n1` returned an EC50 in assay [2] of 260 nM.
With `CN(c1cc(Cl)nc(OCCC(=O)O)n1)c1cccc(Cl)c1Cl`, the EC50 in assay [2] amounted to 3200 nM; in assay [1], 14000 nM.
On to `Cc1ccc2c(c1)N(c1cc(Cl)nc(OCCC(=O)O)n1)CCC2C` (stereo unspecified), for which the results for the EC50 in assay [2], in assay [1] and in assay [3] were 40 nM, 60 nM and 34 nM, respectively.
As for `O=C(O)CCOc1nc(Cl)cc(N2CCCc3ccccc32)n1`, the EC50 worked out at 110 nM in assay [2] and 680 nM in assay [1].
Take `CC1CCc2ccccc2N1c1cc(Cl)nc(OCCC(=O)O)n1` (stereo unspecified): in assay [4], the EC50 result is recorded as “Not Active”.
Consider `Cc1cc(C)cc(N(C)c2cc(Cl)nc(OCCC(=O)O)n2)c1`, for which, in assay [1], the EC50 came out at 160 nM.
As to `O=C(O)CCOc1nc(Cl)cc(N2CCCc3ccc(Cl)cc32)n1`, the figures for the EC50 in assay [2] and in assay [1] were 19 nM and 140 nM, respectively.
`CN(c1cccc(Cl)c1)c1cc(Cl)nc(OCCC(=O)O)n1`: the figures for the EC50 in assay [2] and in assay [1] were 560 nM and 2400 nM, respectively.
In the case of `CN(c1cc(C(F)(F)F)cc(C(F)(F)F)c1)c1cc(Cl)nc(OCCC(=O)O)n1`, it took 150 nM to reach a half-maximal effect in assay [2] (EC50).
Consider `CC1Cc2ccccc2N(c2cc(Cl)nc(OCCC(=O)O)n2)C1` (stereo unspecified), for which the EC50 in assay [2] was found to be 29 nM; in assay [1], 220 nM; in assay [3] it was 34 nM.
The compound `Cc1cc(C)c2c(c1)N(c1cc(Cl)nc(OCCC(=O)O)n1)CCC2` gave an EC50 in assay [1] of 40 nM.

The record behind these values is ChEMBL document CHEMBL5537189 (J Med Chem, 2024).
